Patent US20240336566A1, “CRYSTALLINE FORMS OF A COMPOUND FOR THE TARGETED DEGRADATION OF THE ANDROGEN RECEPTOR” (Arvinas Operations, Inc., priority 2023, published 2024)
≈ marks a conversion by molar mass, not a printed value.

Tests used:
Type in all cases: physicochemical
[1] = 7-day stability assessment (appearance, HPLC, XRPD)
Description: The material was gently ground to release any agglomerates and loaded onto a multi-well plate with Kapton or Mylar polymer film to support the sample. […] Data were visualized and images generated using the HighScore Plus 4.7 desktop application (PANalytical, 2θ17).
They all remained white or off-white solids. • XRPD analysis determined the patterns were retained.

[2] = Dynamic vapour sorption (DVS) with XRPD of retained solid
Description: 10-20 mg of sample was placed into a mesh vapour sorption balance pan and loaded into a DVS-1 dynamic vapour sorption balance by Surface Measurement Systems. The sample was subjected to a ramping profile from 40-90% relative humidity (RH) at 10% increments, maintaining the sample at each step until a stable weight had been achieved (dm/dt 0.004%, minimum step length 30 minutes, maximum step length 500 minutes) at 25° C. After completion of the sorption cycle, the sample was dried using the same procedure to 0% RH and then a second sorption cycle back to 40% RH. Two cycles were performed. The weight change during the sorption/desorption cycles were plotted, allowing for the hygroscopic nature of the sample to be determined. XRPD analysis was then carried out on any solid retained.

[3] = Thermodynamic solubility determination in buffers (HPLC)
Excerpt: No clear solubility advantage of the salts was noted over Compound A free base.

[4] = Competitive slurry experiments of free base Patterns 1, 2 and 6 (XRPD); conditions: slurries of Patterns 1, 2 and 6; ambient or 40° C.
Description: XRPD analysis of the second set of competitive slurry experiments was carried out on a Philips X'Pert Pro Multipurpose diffractometer equipped with a spinning stage autosampler. The samples were scanned between 5 and 34.997 °2θ using Cu K radiation (α1γ=1.54060 Å; α2=1.54443 Å; β=1.39225 Å; α1:α2 ratio=0.5) running in Bragg-Brentano geometry (step size 0.008 °2θ, step time 10.160 s, rotation period 2 s) using 40 kV/40 mA generator settings. Data were visualized and images generated using the HighScore Plus 4.7 desktop application (PANalytical, 2θ17).
• Eight samples were prepared containing 10 mg of free base Patterns 1, 2, and 6. • The appropriate solvent systems were added and observations were noted. • After shaking at either ambient or 40° C., observations were noted and the samples were filtered centrifugally. The solids obtained were analyzed by XRPD.
• Due to inconclusive results, the solids were returned to the sample vials and 100 μL of the appropriate solvent was added to each sample. The samples were then capped and sealed by parafilm and shaken at ambient or 40° C. as before. • After shaking for 72 hours, the solids were analyzed by XRPD. […]

[5] = Heating experiment of Compound A free base Pattern 1 (1H NMR after heating to 250° C.); conditions: heated to 250° C. using the TG/DSC
[6] = 7 days at 40° C./75% RH (open vial)
[7] = 7 days at Ambient light (closed vial)
[8] = Buffer pH 1.2, 25° C., cf concentration of free base, listed as Compound A Free Base Pattern 1
[9] = Buffer pH 3.0, 25° C., LOQ 0.00025 mg/mL
[10] = buffer, 25 °C, pH 4, aqueous buffer, thermodynamic from solid, Buffer pH 4.0, LOQ 0.00025 mg/mL

- HPLC purity [1, 6]: 99.00 % relative area
- XRPD after stability storage [1, 6]: No change
- HPLC purity ([1]; 7 days at 40° C./75% RH (open vial), listed as Free base Pattern 1): 99.00 % relative area
- HPLC purity ([1]; 7 days at 80° C. (closed vial)): 99.03 % relative area
- XRPD after stability storage ([1]; 7 days at 80° C. (closed vial)): No change
- HPLC purity ([1]; 7 days at 80° C. (closed vial), listed as Free base Pattern 1): 99.03 % relative area
- HPLC purity [1, 7]: 99.07 % relative area
- XRPD after stability storage [1, 7]: No change
- HPLC purity ([1]; 7 days at Ambient light (closed vial), listed as Free base Pattern 1): 99.07 % relative area
- Total impurities (HPLC) ([1]; after 7 days at 40° C./75% RH): 1.00 Rel. Area %
- purity retained after stability storage (HPLC) ([1]; after 7 days at 40° C./75% RH (open vial), 80° C. (closed vial), ambient light (closed vial)): > 99 % relative area
- Total impurities (HPLC) ([1]; after 7 days at 80° C.): 0.97 Rel. Area %
- Total impurities (HPLC) ([1]; after 7 days at ambient): 0.93 Rel. Area %
- Total impurities (HPLC) ([1]; before stability testing): 0.99 Rel. Area %
- HPLC purity ([1]; before stability testing (condition N/A)): 99.01 % relative area
- HPLC purity ([1]; before stability testing (condition N/A), listed as Free base Pattern 1): 99.01 % relative area
- DVS hygroscopicity [2]: Slightly hygroscopic
- Form change after DVS [2]: No
- form by XRPD post DVS [2]: no form change
- hygroscopic nature (DVS) ([2]; 25° C.): slightly hygroscopic
- mass uptake of water (DVS) ([2]; RH not stated at the place): 1.17 wt. %
- mass uptake of water (DVS), equivalents ([2]; RH not stated at the place): 0.53 eq.
- DVS water uptake ([2]; at 90% RH): 1.17 wt. %
- DVS water uptake (equivalents of water) ([2]; at 90% RH): 0.53 eq.
- 0 Hr Solubility [3, 8]: 0.1 µg/mL
- 4 Hr Solubility [3, 8]: 26.2 µg/mL
- 24 Hr Solubility [3, 8]: 69.3 µg/mL
- 0 Hr Solubility [3, 9]: <0.25 µg/mL
- 4 Hr Solubility [3, 9]: <0.25 µg/mL
- 24 Hr Solubility [3, 9]: <0.25 µg/mL
- solubility at 0 h [3, 10]: < 0.25 µg/mL
- solubility at 4 h [3, 10]: < 0.25 µg/mL
- solubility at 24 h [3, 10]: < 0.25 µg/mL
- thermodynamic solubility ([3]; pH 1.2, after 24 hours, 25° C., as concentration of Compound A free base): 69.3 µg/mL (≈ 85.8 µM)
- relative stability of forms (competitive slurry) [4]: thermodynamic form
- degradation after heating (1H NMR) [5]: had not degraded
SMILES: COc1cc(O[C@H]2C(C)(C)[C@H](NC(=O)c3ccc(N4CCC(CN5CCN(c6ccc(C(=O)N[C@H]7CCC(=O)NC7=O)c(F)c6)CC5)CC4)cc3)C2(C)C)ccc1C#N [free base Pattern 1]
